Assay results published in patent US20100158850A1, “DENDRIMER BASED MODULAR PLATFORMS” (The Regents of the University of Michigan, priority 2008, published 2010).

Tests used:
[1] = test system: FA-receptor-expressing KB cells; assay: Cellular uptake of dendrimer conjugates in KB cells measured by flow cytometry; assay type: cell-based, human
Description: (§1) The uptake of the synthesized conjugates was performed using FA-receptor-expressing KB cells (ATCC #CCL-17) as previously described (see, e.g., Thomas et al, J. Med. Chem., 48, 3729-3735, 2005; herein incorporated by reference in its entirety). Cells were maintained in FA-free Roswell Park Memorial Institute-1640 (RPMI 1640) medium supplemented with 10% Fetal Bovine serum (FBS), […] L-glutamine, 100 U/ml penicillin and 100 μg/ml streptomycin in 5% CO2 at 37° C. Cells were planted into 24 wells plate at density 250,000 per well and allowed to reach ˜90% confluent on the day of the experiment. They were rinsed and incubated in serum free medium with conjugates for 1 hour at 37° C. in 5% CO2. In some wells, a 20-fold excess of free folic acid or the folic acid conjugated dendrimer was added 30 minutes prior to the addition of the dendrimer platform for the blocking of folate receptors.
(§2) The cellular fluorescence was quantified on a Beckman-Coulter EPICS-XL MCL flow cytometer, and the data were analyzed using Expo32 software (Beckman-Coulter, Miami, Fla.). Cells were trypsinized, rinsed and suspended in PBS containing 0.1% bovine serum albumin (PBSB). The viable cells were gated, and the mean FL1-fluorescence of 10,000 cells was quantified. Error bars are calculated using the half-peak coefficient of variation (HPCV) (see, e.g., Marie, D.; et al., Biol. Cell 1993, 78, 41-51; herein incorporated by reference in its entirety).
Cellular uptake of the folic acid targeted dendrimer system (15) at four different concentrations (30 nM, 100 nM, 300 nM, and 1000 nM of 15) was measured in KB cells that express a high cellular membrane concentration of folic acid receptor (FAR). Fluorescence uptake was quantified by Flow Cytometry.
A series of control experiments were performed in order to ensure that uptake of the folic acid targeted dendrimer system (15) was occurring via receptor-mediated endocytosis and not non-specific membrane interactions. […] The second control sample contained a non-conjugated (un-clicked) mixture of the two dendrimers functionalized with either FITC or folic acid (13 and 14). Uptake of this mixture was quantified at 30 nM, 100 nM, and 300 nM (FIGS. 5c and 5f-teal). […] This control eliminates the possibility that the dendrimer modules could form a non-covalently linked complex that would be internalized. A third control sample (18) was composed of an un-targeted dendrimer module (17) coupled to the FITC conjugated imaging module (14). The un-targeted dual module platform (18) was assembled under the same conditions used to form the folic acid targeted platform (15). […] This un-targeted dendrimer platform control matches the molecular weight and size of the folic acid targeted dendrimer system (15).

folic acid receptor = target: T1, folic acid receptor (Homo sapiens, UniProt P15328); assay: Blocking of folate receptors: uptake of targeted platform 15 in KB cells with 20-fold excess blocking agent; assay type: cell-based; conditions: for Blocking of uptake of targeted platform 15 (FIG. 5d, 5e): 20 fold excess of blocking agent (for 13 with respect to folic acid content)
T1 construct: performed using FA-receptor-expressing KB cells (ATCC #CCL-17); host or cells: KB cells
Description: as §1, §2
The final set of controls investigated active blocking of the folic acid receptor by either free folic acid (FIGS. 5d and 5f-green) or a folic acid-dendrimer conjugate without a fluorescent dye (13) (FIGS. 5e and 5f-orange) to prevent the specific up-take of the folic acid targeted dendrimer systema A 20 fold excess of blocking agent was employed relative to the targeted platform. For the blocking experiment using the single dendrimer-folic acid conjugate (13), molar equivalence was based on the folic acid content of the sample rather than the dendrimer content. Both blocking agents were evaluated at 30 nM, 100 nM, 300 nM, and 1000 nM. […] While the dendrimer-folic acid conjugate is not as effective at blocking as the free folic acid, approximately 75% blocking is achieved.

T1 sequence (P15328 25-234): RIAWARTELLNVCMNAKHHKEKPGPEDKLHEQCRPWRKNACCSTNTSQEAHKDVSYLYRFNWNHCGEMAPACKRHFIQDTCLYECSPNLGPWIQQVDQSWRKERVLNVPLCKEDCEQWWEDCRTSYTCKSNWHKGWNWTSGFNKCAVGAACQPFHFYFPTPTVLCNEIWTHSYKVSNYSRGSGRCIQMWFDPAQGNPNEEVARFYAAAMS

G5-Ac110.7-L-G5-Ac106-FITC3.2 [Compound 18]
Mean fluorescence uptake beyond the background level ([1]; KB cells, concentrations up to 300 nM): no uptake was observed beyond the background level

G5-Ac107-Alkyne1.6-FA3.5 [Compound 13]
Blocking of uptake of targeted platform 15 (folic acid receptor; 20 fold excess based on folic acid content, evaluated at 30-1000 nM): approximately 75% | Blocking of uptake of targeted platform 15 (FIG. 5d, 5e) (folic acid receptor): successfully blocked

Nc1nc2ncc(CNc3ccc(C(=O)N[C@@H](CCC(=O)O)C(=O)O)cc3)nc2c(=O)[nH]1 [free folic acid, folic acid, reference compound]
Blocking of uptake of targeted platform 15 (FIG. 5d, 5e) (folic acid receptor): successfully blocked | Blocking of uptake of targeted platform 15 (folic acid receptor; 20 fold excess, added 30 minutes before, concentrations up to 100 nM): Complete blocking

G5-Ac106-Azide2.5-FITC3.2 [Compound 14]
Cellular uptake (FIG. 5b) ([1]; KB cells, 30 nM, 100 nM and 300 nM): not observed | Cellular uptake above the background level ([1]; KB cells, 30 nM, 100 nM, 300 nM and 1000 nM): No uptake was observed | Cellular uptake (FIG. 5b) ([1]; KB cells, 1000 nM): Very minimal uptake

FA3.5-G5-Ac107-L-G5-Ac106-FITC3.2 [Compound 15]
Cellular uptake (fluorescence, flow cytometry) ([1]; KB cells, 1 hour at 37° C., 30 nM, 100 nM, 300 nM and 1000 nM): dose dependent uptake | Concentration at which uptake saturates ([1]; KB cells, 1 hour at 37° C., tested at 30-1000 nM): 100 nM | Specific targeting of folic acid receptor in vitro ([1]; human epithelial cancer cell line (KB)): found to specifically target the over-expressed folic acid receptor
